The numbers were not newly measured in patent publication US20120202839A1, “METHODS AND COMPOSITIONS FOR DETERRING ABUSE OF ORALLY ADMINISTERED PHARMACEUTICAL PRODUCTS” (priority 2004, published 2012), which cites them from elsewhere.

The conditions of the data set: oral ingestion; typical threshold.

Turning to `O=S(=O)([O-])[O-].[Zn+2]` [ZINC SULFATE], the “amount ingested above which emesis is induced, typically” value was “more than 0.6 gm”.
